Results: PubChem BioAssay (NCI)
Where “and” joins values, the source holds several entries; their conditions need not be identical. Identical values can stand only once.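 A five-concentration, 48-hour dose response in 96-well plates underlies each endpoint, interpolated linearly between surrounding concentrations. GI50 = concentration required for 50% inhibition of growth. TGI is the concentration that stops growth completely.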

Key:
Assay in all cases: inhibition of tumour cell growth, NCI panel, 48 h
MOLT-4 leukemia = system: MOLT-4 leukemia
A498 renal = system: A498 renal
COLO 205 colon = system: COLO 205 colon
A549 NSCLC = system: A549 NSCLC
NCI/ADR-RES ovarian = system: NCI/ADR-RES ovarian
SF-295 CNS = system: SF-295 CNS
OVCAR-5 ovarian = system: OVCAR-5 ovarian
RPMI-8226 leukemia = system: RPMI-8226 leukemia
T-47D breast = system: T-47D breast
NCI-H23 lung = system: NCI-H23 lung

| Structure (SMILES) | TGI (MOLT-4 leukemia) [µM] | TGI (A498 renal) [µM] | TGI (COLO 205 colon) | TGI (A549 NSCLC) [µM] | TGI (NCI/ADR-RES ovarian) [µM] | TGI (SF-295 CNS) [µM] | TGI (OVCAR-5 ovarian) [µM] | TGI (RPMI-8226 leukemia) [µM] | TGI (T-47D breast) [µM] | TGI (NCI-H23 lung) [µM] | GI50 (RPMI-8226 leukemia) [nM] | GI50 (MOLT-4 leukemia) [nM] |
| --- | --- | --- | --- | --- | --- | --- | --- | --- | --- | --- | --- | --- |
| CSC(SC)=C(C#N)C(=O)Nc1cccc(Cl)c1 | 87.2 | > 100 | > 100 µM | > 100 | > 100 | > 100 | > 100 |  |  |  |  |  |
| COC(=O)c1ccccc1C1CN=NC12Cc1c(ccc3c1CCC3)C2=O (stereo not given) | > 100 |  | > 100 µM | > 100 | > 100 | > 100 | > 100 | 86 | > 100 | > 100 |  |  |
| O=c1[nH]nc(-c2ccccc2)n1/N=C/c1ccc([N+](=O)[O-])o1 | > 47.1 | 23 | 8.47 µM | 21.9 | > 26 | > 55.1 | 31.5 | 12.8 | > 96.4 |  |  |  |
| O=C1NC(=O)c2ccccc2/C1=C/c1ccc2c(c1)OCO2 | > 100 | > 100 |  | > 100 | 69.2 | 83.1 | > 100 | 74.3 | > 100 | 46.8 |  |  |
| CC(C(=O)OCc1ccccc1)N(Cc1ccccc1)Cc1ccccc1 (stereo not given) | > 100 | > 100 | > 100 µM | > 100 |  | > 100 | > 100 | > 100 |  | > 100 |  |  |
| N#CC(CCN1CCC(Nc2ccccc2)(c2nnnn2C2CCCCC2)CC1)(c1ccccc1)c1ccccc1 | > 100 | > 100 | > 100 µM | > 100 | > 100 | > 100 | > 100 | > 100 |  | > 100 |  |  |
| CC(C)(C)OC(=O)[C@@H]1CCC(=O)N1C1(c2ccccc2)c2ccccc2-c2ccccc21 | 51.5 | > 100 | 77.8 µM | > 100 | > 100 | 61.1 | > 100 |  | > 100 | > 100 |  |  |
| C#C[C@]1(O)CC[C@H]2[C@@H]3CCC4=C/C(=N/NC(=O)c5cccc6c(=O)c7ccccc7[nH]c56)CCC4[C@H]3CC[C@@]21C (stereo not given in full) | > 100 |  | > 100 µM | > 100 | > 100 | > 100 | > 100 | > 100 | > 100 | > 100 |  |  |
| O=C(O)CCC(=O)OCN1C(=O)C2C3C=CC(C2C1=O)C1C2C(=O)N(COC(=O)CCC(=O)O)C(=O)C2C31 (stereo not given) | > 100 | > 100 | > 100 µM | > 100 |  | > 100 | > 100 | 52.5 |  | > 100 |  |  |
| COC(=O)[C@H](Cc1c[nH]c2ccccc12)NP(=O)(OCCC#N)OCC1OC(n2cc(C)c(=O)[nH]c2=O)CC1N=[N+]=[N-] (stereo not given in full) | > 100 |  | > 100 µM | > 100 | > 100 | > 100 | > 100 | > 100 | > 100 | > 100 |  |  |
| COc1ccc(C2C3=C(N=C4SC(C(C)=O)=C(C)N42)c2ccccc2CC3)cc1 (stereo not given) |  | > 100 | > 100 µM | > 100 |  | > 100 | > 100 | 29.9 | > 100 | > 100 |  |  |
| O=c1[nH]c(=O)n(C2CC(O)C(CO)O2)cc1Oc1ccccc1 (stereo not given) | > 100 |  | > 100 µM | > 100 | > 100 | > 100 | > 100 | > 100 | > 100 | > 100 |  |  |
| CC(C)(C)c1ccc(C(O)CCCN2CCC(C(O)(c3ccccc3)c3ccccc3)CC2)cc1 (stereo not given) | 5.32 |  | 2.52 µM and 21.2 µM |  |  |  |  | 5.49 |  |  | 1940 | 2160 |
| CC(C)(C)OC(=O)N/C(C=O)=C\C1CCCCC1 | 52 |  | 36.8 µM | > 100 | 44.3 | 99.3 | 42.3 |  | 84.5 | 62 |  |  |
| Cc1cc2[nH]c3c(C#N)c(-c4ccccc4)c(N=Nc4ccc(F)cc4)c(=O)n3c2cc1C |  | > 100 | > 100 µM | > 100 | > 100 | > 100 | > 100 | > 100 | > 100 | > 100 |  |  |
| CC(C)(C)OC(=O)NC12C3C4C1C1C2C3C41NC(=O)OC(C)(C)C (stereo not given) | 40.4 | > 100 | > 100 µM | > 100 | > 100 | > 100 | > 100 |  | > 100 | > 100 |  |  |
| CN(Cc1cnc2nc(N)nc(N)c2n1)c1ccc(C(=O)NC23CC4CC(CC(C4)C2)C3)cc1 | 48.5 | > 100 | 24 µM |  | > 100 | 21.1 | 24.7 | 70.8 | 39 | 22.3 |  |  |
| CCOC(=O)c1ccc(Nc2nc3ccccc3nc2-c2cccs2)cc1 | > 100 |  | > 100 µM | > 100 | > 100 | > 100 | > 100 | > 100 | 56.2 | > 100 |  |  |
| COc1ccccc1OCC(COC(=O)Nc1ccccc1)OC(=O)Nc1ccccc1 (stereo not given) |  | > 100 | > 100 µM | > 100 |  | > 100 | > 100 |  |  | > 100 |  |  |
| Cc1nc2cc(F)c(F)cc2[nH]c1=O | > 100 |  | > 100 µM | > 100 | > 100 | > 100 | > 100 | > 100 | > 100 | > 100 |  |  |
| O=P1(N2CCOCC2)OCCO1 | > 100 | > 100 | > 100 µM | > 100 | > 100 | > 100 | > 100 | > 100 |  | > 100 |  |  |
| CCN1C/C(=C\c2ccc(Cl)cc2)c2nc(N)c(C#N)c(-c3ccc(Cl)cc3)c2C1 | > 100 | > 100 | > 100 µM | > 100 | > 100 | > 100 | > 100 | > 100 |  | > 100 |  |  |
